Measured values published in patent publication US12157730B2, “Heteroaryl derivative, method for producing same, and pharmaceutical composition comprising same as effective component” (VORONOI INC., priority 2019, dated 2024).

Target: T1, Ba/F3 cell EGFR Exon20 ins NPH (Homo sapiens, UniProt P00533, INS773NPH)
T1 construct: expressed in transfected cells; host or cells: Ba/F3
Assay: Ba/F3 cell proliferation suppression, EGFR Exon20 ins NPH
Format: cell-based
Settings: GI50 class; Ba/F3 cell line with NPH inserted at Exon20 of EGFR; 72 hours
Outline: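 After 72 h compound exposure (twelve 3-fold steps, 0.3 nM–50 um final), live cells were measured by CellTiter-Glo luminescence and growth expressed as % of control to derive GI50. Cells were seeded at 3000–5000 per well a day earlier; Ba/F3 medium contained IL-3; three repeats.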

## C=CCN1CCN(C2CCN(c3cc(OC)c(Nc4cc(N5OCC[C@@H]5c5ccc(F)c(F)c5)ncn4)cc3NC(=O)C=C)CC2)CC1 [Example 212, N-(2-(4-(4-allylpiperazine-1-yl)piperidine-1-yl)-5-((6-((R)-3-(3,4-difluorophenyl)isoxazolidine-2-yl)pyrimidine-4-yl)amino)-4-methoxyphenyl) acrylamide]
  Ba/F3 (NPH) Activity: A (GI50 < 50 nM)

## C=CC(=O)Nc1cc(Nc2cc(N3OCC[C@@H]3c3cccc(Cl)c3Cl)ncn2)c(OC)cc1N1CCN(C2CC2)[C@@H](C)C1 [compound 568, N-(2-((S)-4-cyclopropyl-3-methylpiperazine-1-yl)-5-((6-((R)-3-(2,3-dichlorophenyl)isoxazolidine-2-yl)pyrimidine-4-yl)amino)-4-methoxyphenyl) acrylamide]
  Ba/F3 (NPH) Activity: A (GI50 < 50 nM)

## C=CC(=O)Nc1cc(Nc2cc(N3OCC[C@@H]3c3ccc(Cl)cc3)ncn2)c(OC)cc1N1CCC(N2CCN(C)CC2)CC1 [compound 732, N-(5-((6-((R)-3-(4-chlorophenyl)isoxazolidine-2-yl)pyrimidine-4-yl)amino)-4-methoxy-2-(4-(4-methylpiperazine-1-yl)piperidine-1-yl)phenyl) acrylamide]
  Ba/F3 (NPH) Activity: A (GI50 < 50 nM)

## C=CC(=O)Nc1cc(Nc2cc(N3OCC[C@@H]3c3ccc(Cl)c(F)c3)ncn2)c(OC)cc1N1CCC(N2C[C@@H]3C[C@H]2CN3CC)CC1 [compound 858, N-(5-((6-((R)-3-(4-chloro-3-fluorophenyl)isoxazolidine-2-yl)pyrimidine-4-yl)amino)-2-(4-((1S,4S)-5-ethyl-2,5-diazabicyclo [2.2.1]heptane-2-yl)piperidine-1-yl)-4-methoxyphenyl) acrylamide]
  Ba/F3 (NPH) Activity: A (GI50 < 50 nM)

## C=CC(=O)Nc1cc(Nc2cc(N3OCC[C@@H]3c3cc(F)ccc3F)ncn2)c(OC)cc1N1CC[C@H](N2CCOCC2)C1 [compound 302, N-(5-((6-((R)-3-(2,5-difluorophenyl)isoxazolidine-2-yl)pyrimidine-4-yl)amino)-4-methoxy-2-((S)-3-morpholinopyrolidine-1-yl)phenyl)acrylamide]
  Ba/F3 (NPH) Activity: B (50 nM ≤ GI50 < 500 nM)

## C=CC(=O)Nc1cc(Nc2cc(N3OCC[C@@H]3c3cccc(F)c3F)ncn2)c(OC)cc1N1C[C@@H]2CCN(C)[C@@H]2C1 [compound 876, N-(5-((6-((R)-3-(2,3-difluorophenyl)isoxazolidine-2-yl)pyrimidine-4-yl)amino)-4-methoxy-2-((3aS,6aS)-1-methylhexahydropyrrolo [3,4-b]pyrrole-5(1H)-yl)phenyl) acrylamide]
  Ba/F3 (NPH) Activity: A (GI50 < 50 nM)

## C=CC(=O)Nc1cc(Nc2cc(N3OCC[C@@H]3c3ccc(Cl)c(F)c3)ncn2)c(OC)cc1N1CC[C@H](N2CCOCC2)C1 [compound 365, N-(5-((6-((R)-3-(4-chloro-3-fluorophenyl)isoxazolidine-2-yl)pyrimidine-4-yl)amino)-4-methoxy-2-((S)-3-morpholinopyrolidine-1-yl)phenyl) acrylamide]
  Ba/F3 (NPH) Activity: B (50 nM ≤ GI50 < 500 nM)

## C=CC(=O)Nc1cc(Nc2cc(N3OCC[C@@H]3c3cc(F)ccc3F)ncn2)c(OC)cc1N1CCN(CCC)CC1 [compound 300, N-(5-((6-((R)-3-(2,5-difluorophenyl)isoxazolidine-2-yl)pyrimidine-4-yl)amino)-4-methoxy-2-(4-propylpiperazine-1-yl)phenyl)acrylamide]
  Ba/F3 (NPH) Activity: A (GI50 < 50 nM)

## C=CC(=O)Nc1cc(Nc2cc(N3OCC[C@@H]3c3cccc(Cl)c3)ncn2)c(OC)cc1N1CCC(N2CCN(C)CC2)CC1 [compound 416]
  Ba/F3 (NPH) Activity: A (GI50 < 50 nM)
